Where a name gives a salt, the structure may show the parent alone.
Experiments:
[1] = Solubility screening by solvent addition technique (approximate solubility); format: physicochemical; details: thermodynamic from solid, stirred at 50° C.
Experimental: Approximate solubility values for amorphous Compound I dihydrochloride in 24 solvent systems was estimated by a solvent addition technique (Table 5).
The following procedure was used for the study: • Approximately 20 mg of material was weighed out into 24×2 mL push-cap vials. • Each solvent/solvent mixture was added to the appropriate vial in 5 volume aliquots (100 μL) until either no more solvent could be added or until the material dissolved. • In between additions, the experiments were stirred at 50° C. • If 2000 μL of solvent was added without dissolution of the material, solubility was calculated to be below this point. • Experiments were stirred at 50° C. for 1.5-5 h and then cooled at 0.1° C./min to 5° C. and stirred at 5° C. for about 10 h. • Solids (residual and recrystallized) were isolated by centrifugation (0.22 μm nylon filter) and analyzed by XRPD. • Anti-solvent addition (ASA) at 20° C. was carried out on solutions, followed by temperature cycling between 50° C.-5° C. (1 h hold, 0.1° C./min cool, 0.25° C./min ramp) for 20 h. • ASA at 5° C. was carried out on experiments which remained solutions, which were then stirred at 5° C. for 3 h. • Solids were isolated by centrifugation (0.22 μm nylon filter) and analyzed by XRPD; experiments which remained solutions were evaporated at ambient temperature (about 20° C.) under vacuum. • All isolated material was dried under vacuum at about 30° C. for about 19-23 h then re-analyzed by XRPD.
For comparison purposes, the approximate solubility of Compound I dihydrochloride Form 1 was estimated in water, using the same procedure, in solubility screening Experiment 25.

[2] = Solid form stability on storage (XRPD re-analysis); format: physicochemical; details: stored at 40° C./75% RH for 22 h
Experimental: The solids were dried under vacuum at ambient temperature (about 23° C.) for 17 h. The solids on the XRPD plate were stored at 40° C./75% RH for 22 h then re-analyzed. Amorphous and a mixture of Compound I dihydrochloride Form 2 and Form 6 were obtained (Table 7).
The solids were isolated by filtration after a total of 27.5 h at 5° C. and washed with 0.6 mL of cold acetone or 3×0.6 mL of cold heptane. The solids were dried under vacuum at ambient temperature (about 23° C.) for 17 h. The solids on the XRPD plate were stored at 40° C./75% RH for 22 h then re-analyzed by XRPD. Results, which are summarized in Table 8, show mixtures of Compound I dihydrochloride Forms 5 and 6, 5, 2 and 1, and 2 were obtained.
1.0 mL of water was added to approximately 300 mg of Compound I dihydrochloride Form 1. The resulting mixture was magnetically stirred at 50° C. over about 15 min, then stirred at 50° C. for 0.25 h. The solution was polish filtered (0.45 μm PTFE filter) into a 2 mL push-cap vial and then stirred at 50° C. for 0.25 h, prior to cooling to 5° C. at 0.1° C./min. After 62 h at 5° C., the experiment was sub-sampled and the solid was analyzed by XRPD. The material on the XRPD plate was dried under vacuum at 35° C. under a stream of wet nitrogen (20-38% RH) for about 9 h and then re-analyzed by XRPD. The material on the XRPD plate was stored at 25° C./60% RH for 22 h and then re-analyzed by XRPD. After a total of 87 h at 5° C., solids were isolated by centrifugation (0.22 μm nylon filter) and analyzed by XRPD. The solids were air-dried at ambient temperature (about 22° C.) for 24 h.
Small-scale crystallization Experiment 7 was sub-sampled prior to ASA and after ASA was complete, with solids isolated by centrifugation (0.22 μm nylon filter) and analyzed by XRPD.
Approximately 10 g of Compound I dihydrochloride Form 1 was dissolved in 67 mL of ethanol:water 99:1 v/v at about 60° C. (initial concentration: 150 mg/mL). Polish filtration was carried out (0.2 μm PTFE filter). The solution was transferred to a 250 mL vessel at 60° C. and stirred at 50° C. (solution temperature) and 300 rpm for about 5 min. The solution was seeded with about 100 mg (1 wt. %) of Compound I dihydrochloride Form 2, isolated from small-scale crystallization Experiments 12 and 13, from example 4 above. The seed dissolved rapidly. Anti-solvent addition of 10 mL of heptane (1 volume) was carried out at 2 vol/h (Heptane content of 13%). The solution was re-seeded with a further 100 mg (1 wt. %) of Form 2, isolated from small-scale crystallization Experiment 12. The seed persisted and a slurry formed. The slurry was stirred at 50° C. for 1 h and then anti-solvent addition of 131 mL of heptane at 1.5 vol/h was carried out, to reach 60% heptane. […] An additional 2 volumes of ethanol:water 99:1 v/v was added at the beginning of the ASA to mobilize the slurry. Once ASA was complete, the slurry was cooled to 5° C. at 0.1° C./min. The experiment was sub-sampled after about 2 h at 5° C. The slurry was thick but mixing. After 3.5 h at 5° C., an additional 3.6 mL of water was added to increase the water content to 2% (ethanol:water:heptane ratio of 39:2:59 v/v/v). The experiment was sub-sampled again after 2 h at 5° C. with additional water. After a total of 10 h at 5° C., solids were isolated by filtration and washed with 2 volumes of cold (5° C.) ethanol:heptane 40:60 v/v. The solids were filtered and dried under vacuum at ambient temperature (about 21° C.) for 14.5 h, then analyzed by XRPD.

What does the source list for `CC[C@H]1CN2CCc3cc(OC)c(OC)cc3[C@@H]2C[C@@H]1C[C@H]1NCCc2cc(OC)c(OC)cc21` [Amorphous Compound I dihydrochloride]?
solubility ([1]; aqueous with cosolvent or surfactant or cyclodextrin, acetone:water 50:50 v/v): > 200 mg/mL; solubility ([1]; aqueous with cosolvent or surfactant or cyclodextrin, ethanol:water 25:75 v/v): > 200 mg/mL; solubility ([1]; aqueous with cosolvent or surfactant or cyclodextrin, methanol:water 50:50 v/v): > 200 mg/mL; solubility ([1]; organic solvent or mixture, 1-propanol): > 200 mg/mL; solubility ([1]; organic solvent or mixture, 2-methyl THF): < 10 mg/mL; solubility ([1]; organic solvent or mixture, 2-propanol): > 200 mg/mL; solubility ([1]; organic solvent or mixture, 2-propanol:water 95:5 v/v): > 200 mg/mL; solubility ([1]; organic solvent or mixture, N-methyl-2-pyrrolidone): > 200 mg/mL; solubility ([1]; organic solvent or mixture, THF): < 10 mg/mL; solubility ([1]; organic solvent or mixture, acetone): < 10 mg/mL; solubility ([1]; organic solvent or mixture, anisole): < 10 mg/mL; solubility ([1]; organic solvent or mixture, dimethylformamide): > 200 mg/mL; solubility ([1]; organic solvent or mixture, dimethylsulfoxide): > 200 mg/mL; solubility ([1]; organic solvent or mixture, ethanol): > 200 mg/mL; solubility ([1]; organic solvent or mixture, ethanol:water 90:10 v/v): > 200 mg/mL; solubility ([1]; organic solvent or mixture, ethyl acetate): < 10 mg/mL; solubility ([1]; organic solvent or mixture, heptane): < 10 mg/mL; solubility ([1]; organic solvent or mixture, isopropyl acetate): < 10 mg/mL; solubility ([1]; organic solvent or mixture, methanol): > 200 mg/mL; solubility ([1]; organic solvent or mixture, methylethyl ketone): < 10 mg/mL; solubility ([1]; organic solvent or mixture, methylisobutyl ketone): < 10 mg/mL; solubility ([1]; organic solvent or mixture, tBME): < 10 mg/mL; solubility ([1]; organic solvent or mixture, toluene): < 10 mg/mL; solubility ([1]; water): > 200 mg/mL; Solid form by XRPD after storage [2]: amorphous Compound I dihydrochloride was obtained

From patent US12528805B2, “Solid forms of emetine” (Acer Therapeutics, Inc., priority 2020, dated 2026)
